Results on ten compounds are retold here after patent US6512112B2, “Aminoaryl oxazolidinone N-oxides” (Pharmacia & Upjohn Company, priority 1995, dated 2003).

Series [1] in a line: Solubility in pH 7, 50 mM phosphate buffer. The series is classed as physicochemical. The conditions noted are these: thermodynamic from solid. The method, then: The samples are capped and stirred via magnetic stir bars for 24 to 48 hours at room temperature. Samples are filter centrifuged (800×g) for 5-10 minutes through Millipore Ultrafree-MC 0.22 Micron filter units. The supernate is analyzed by either UV or HPLC to quantitate the drug concentration.

For series [2], the system named is S. Pneumoniae UC ® 9912. In words: Minimum inhibitory concentration (MIC) by agar dilution. Format: cell-based. Particulars: Streptococcus pneumoniae, UC9912. As for the experimental part: (§1) The oxazolidinone compounds of the present invention have useful activity against a variety of microorganisms. The in vitro activity of compounds of the present invention are assessed by standard testing procedures such as the determination of minimum inhibitory concentration (MIC) by agar dilution as described in “Methods for Dilution Antimicrobial Susceptiblity Tests for Bacteria That Grow Aerobically” (MFT) published January 1993 by the National Committee for Clinical Laboratory Standards (NCCLS), 771 East Lancaster Avenue, Villanova, Pa. 19084, USA. The activity of selected compounds of the present invention against Staphylococcus aureus and Streptococcus pneumoniae are shown in Table 2.
(In general: Agar dilution tests growth on a series of plates holding different concentrations.)

Series [3] has as its system S. Aureus UC ® 9213. Described as above. Format: cell-based. Particulars: Staphylococcus aureus, UC9213. As for the experimental part:
as §1

The nature of series [4]: Reduction of the N-oxide in vivo following intravenous and oral administration to rats. More on the design: species or system male Sprague-Dawley rats. The conditions noted are these: rat. The method, then:
The rate and extent of reduction of the N-oxide of Example 2 was investigated in vivo using the following procedures: Six male Sprague-Dawley rats are used for this study. Three rats are given a single intravenous 10 mg/kg dose of the N-oxide and three rats are given a single oral 25 mg/kg dose of the N-oxide. Blood is collected pre-dose and up to 24 h post dose. The plasma is analyzed for the N-oxide and the parent amine by LC-MS.

[5] abbreviates: aqueous buffer, parent amine of the example's N-oxide, pH 7, 50 mM phosphate buffer or other vehicle, room temperature, 24 to 48 hours, read-out: Parent Amine Solubility.
The mark [6] stands for this setting: aqueous buffer, pH 7, 50 mM phosphate buffer or other vehicle, room temperature, 24 to 48 hours, read-out: N-Oxide Solubility.

Each structure is given as a SMILES string. Values after ≈ are worked out from the molar mass of the structure shown. Where two headings read alike, the source gives them in different places.

The solubility is the concentration that dissolves in the medium under given conditions. For the compound `CC(=O)NC[C@H]1CN(c2ccc(N3CCN(S(=O)(=O)c4ccccc4C#N)CC3)c(F)c2)C(=O)O1` [parent amine of Example 6, (S)-N-[[3-[4-[4-[(2-cyanophenyl)sulfonyl]-1-piperazinyl]-3-fluorophenyl]-2-oxo-5-oxazolidinyl]methyl]acetamide, reference compound], the solubility in series [1] (setting [5]) came out at 31 µg/mL (≈ 0.0618 mM).
By MIC is commonly meant the lowest concentration found to suppress growth. Consider `CC(=O)NC[C@H]1CN(c2ccc([N+]3([O-])CCN(C(=O)CO)CC3)c(F)c2)C(=O)O1` [Example 1, (S)-N-[[3-[3-fluoro4-[4-(hydroxyacetyl)-1-piperazinyl]phenyl]-2-oxo-5-oxazolidinyl]-methyl]acetamide N-oxide], for which the MIC in series [2] was 0.5 µg/mL (≈ 0.00122 mM); in series [3], 2 µg/mL (≈ 0.00487 mM). The solubility in series [1] (setting [6]) was found to be 348000 µg/mL (≈ 848 mM).
What is called melting point is the temperature of the solid-liquid transition. On to `CC(=O)NC[C@H]1CN(c2ccc([N+]3([O-])CCN(S(=O)(=O)c4ccccc4C#N)CC3)c(F)c2)C(=O)O1` [Example 6, (S)-N-[[3-[4-[4-[(2-cyanophenyl)sulfonyl]-1-piperazinyl]-3-fluorophenyl]-2-oxo-5-oxazolidinyl]methyl]acetamide N-oxide], for which the melting point is 190 to 192 °C. In series [2], the MIC stood at 0.25 µg/mL (≈ 0.000483 mM). 2 µg/mL (≈ 0.00386 mM) was the least that counted as inhibitory in series [3] (MIC). Also, the solubility in series [1] (setting [6]) was found to be 1100 µg/mL (≈ 2.13 mM).
On to `CC(=O)NC[C@H]1CN(c2ccc(N3CCOCC3)c(F)c2)C(=O)O1` [parent amine of Example 2, (S )-N-[[3-[3 -Fluoro-4-(4-morpholinyl)phenyl]-2-oxo-5-oxazolidinyl]methyl]-acetamide, reference compound], for which the “time parent amine detected in plasma post dosing” value in series [4] (after dosing of the N-oxide, lower limit of quantitation ≈0.01 μg/mL) was “up to 10 h”.
Compound `CC(=O)NC[C@H]1CN(c2cc(F)c([N+]3([O-])CCN(C(=O)CO)CC3)c(F)c2)C(=O)O1` [Example 4, (S)-N-[[3-[3,5-difluoro-4-[4-(hydroxyacetyl)-1-piperazinyl]phenyl]-2-oxo-5-oxazolidinyl]-methyl]acetamide N-oxide] registered a melting point of 100 to 105 °C. The compound also returned an MIC in series [2] of 0.5 µg/mL (≈ 0.00117 mM). This compound came in with an MIC in series [3] of 2 µg/mL (≈ 0.00467 mM).
Turning to `CC(=O)NC[C@H]1CN(c2ccc([N+]3([O-])CCOCC3)c(F)c2)C(=O)O1` [Example 2], the melting point was in the range of 202 to 204 °C. The same compound showed an MIC in series [2] of 1 µg/mL (≈ 0.00283 mM). Further, in series [3], the MIC was determined as 4 µg/mL (≈ 0.0113 mM). The solubility in series [1] (setting [6]) came to 534000 µg/mL (≈ 1510 mM). Also, the solubility in series [1] (water, value stated, read-out: water solubility) is 409000 µg/mL (≈ 1160 mM). Moreover, in series [4] (10 mg/kg intravenous N-oxide, first time point immediately post injection, LC-MS), the “N-oxide found in plasma” value is “Only traces”. Moreover, in series [4] (N-oxide 10 mg/kg intravenous and 25 mg/kg oral, same doses and protocol), the “Cmax, Tmax and AUC values for the parent amine compared with direct administration of the parent amine” value is listed as “very similar”. The “conversion of the N-oxide to the parent amine in vivo” value in series [4] (intravenous and oral dosing) was “rapid and essentially quantitative”.
`CC(=O)[NH+]([O-])C[C@@H]1CN(c2ccc(N3CCN(S(=O)(=O)CC#N)CC3)c(F)c2)C(=O)O1` (stereo partly drawn) [Example 5, (S)-N-[[3-[4-[4-[(cyanomethyl)sulfonyl]-1-piperazinyl]3-fluorophenyl]-2-oxo-5-oxazolidinyl]methyl]acetamide N-oxide] returned a melting point of 153 to 156 °C. Moreover, the MIC in series [2] was determined as 0.5 µg/mL (≈ 0.0011 mM). The MIC in series [3] stood at 4 µg/mL (≈ 0.00878 mM).
In the case of `CC(=O)NC[C@H]1CN(c2ccc(N3CCN(S(C)(=O)=O)CC3)c(F)c2)C(=O)O1` [parent amine of Example 3, (S)-N-[[3-[3-fluoro-4-[4-(methylsulfonyl)-1-piperazinyl]phenyl]-2-oxo-5-oxazolidinyl]-methyl]acetamide, reference compound], the solubility in series [1] (setting [5]) turned out to be 280 µg/mL (≈ 0.676 mM).
As to `CC(=O)NC[C@H]1CN(c2ccc(N3CCN(C(=O)CO)CC3)c(F)c2)C(=O)O1` [parent amine of Example 1, (S)-N-[[3-[3-Fluoro-4-[4-(hydroxyacetyl)-1-piperazinyl]-phenyl]-2-oxo-5-oxazolidinyl]methyl]-acetamide, reference compound], the solubility in series [1] (setting [5]) was determined as 4200 µg/mL (≈ 10.6 mM).
`CC(=O)NC[C@H]1CN(c2ccc([N+]3([O-])CCN(C(=O)CO)CC3)c(F)c2)C(=O)O1` (hydrate or solvate) [Example 1, (S)-N-[[3-[3-fluoro4-[4-(hydroxyacetyl)-1-piperazinyl]phenyl]-2-oxo-5-oxazolidinyl]-methyl]acetamide N-oxide]: the melting point was in the range of 158 to 160 °C.
